Laboratory results as given in patent US20170275261A1, “1,3,4-THIADIAZOLES HAVING A HERBICIDAL ACTIVITY, THEIR AGRONOMICAL COMPOSITIONS AND RELATIVE USE” (ISAGRO S.P.A., priority 2014, published 2017).

Legend:
Format in all cases: in vivo
Details in all cases: dose 250 g/ha, fifteen days after treatment, damage vs control
[1] = system: Alopecurus myosuroides; experiment: Herbicidal activity in pre-emergence
Description: (§1) The herbicidal activity in pre-emergence of the compounds of the invention was evaluated according to the following operating procedures.
(§2) The plant species of interest (weeds or crops) were seeded in vases having an upper diameter of 10 cm, a height of 10 cm and containing sandy earth. 10 vases were used for each plant species.
(§3) Water was added to each vase in a suitable quantity for the germination of the seeds. The vases were then divided into two groups, each containing 5 vases for each weed or crop.
(§4) One day after seeding, the first group of vases was treated with a dispersion having the following composition:
(§5) Said dispersion was prepared by adding a compound of the present invention at the desired concentration to a hydroacetonic solution containing acetone at 20% by volume and Tween 20 at 0.5% by weight, with respect to the total weight of the dispersion.
(§6) The desired concentration of a compound of the present invention corresponds to the concentration necessary for allowing the application of an effective dose of said compound equal to 250 g/ha to the plant species of interest.
(§7) The second group was only treated with a hydroacetonic solution containing acetone at 20% by volume and Tween 20 at 0.5% by weight, and was used as a comparison (control).
(§8) All the vases were kept under observation in a conditioned environment under the following environmental conditions: • temperature: 24° C.; • relative humidity: 60%; • photo-period: 16 hours; • light intensity: 12,000 lux.
(§9) Every two days the vases were uniformly watered to ensure a sufficient humidity degree for a good growth of the plants.

[2] = system: Apera spica-venti; experiment: Herbicidal activity in pre-emergence
Description: as §1, §2, §3, §4, §5, §6, §7, §8, §9

[3] = system: Digitaria sanguinalis; experiment: Herbicidal activity in pre-emergence
Description: as §1, §2, §3, §4, §5, §6, §7, §8, §9

[4] = system: Echinochloa crusgalli; experiment: Herbicidal activity in pre-emergence
Description: as §1, §2, §3, §4, §5, §6, §7, §8, §9

[5] = system: Eleusine indica; experiment: Herbicidal activity in pre-emergence
Description: as §1, §2, §3, §4, §5, §6, §7, §8, §9

[6] = system: Lolium rigidum; experiment: Herbicidal activity in pre-emergence
Description: as §1, §2, §3, §4, §5, §6, §7, §8, §9

[7] = system: Poa Annua; experiment: Herbicidal activity in pre-emergence
Description: as §1, §2, §3, §4, §5, §6, §7, §8, §9

[8] = system: Setaria viridis; experiment: Herbicidal activity in pre-emergence
Description: as §1, §2, §3, §4, §5, §6, §7, §8, §9

[9] = system: Alopecurus myosuroides; experiment: Herbicidal activity in post-emergence
Description: (§10) The herbicidal activity in post-emergence of the compounds of the invention was evaluated according to the following operating procedures.
as §2, §3, §7, §8, §9

[10] = system: Apera spica-venti; experiment: Herbicidal activity in post-emergence
Description: as §10, §2, §3, §7, §8, §9

[11] = system: Digitaria sanguinalis; experiment: Herbicidal activity in post-emergence
Description: as §10, §2, §3, §7, §8, §9

[12] = system: Echinochloa crusgalli; experiment: Herbicidal activity in post-emergence
Description: as §10, §2, §3, §7, §8, §9

[13] = system: Eleusine indica; experiment: Herbicidal activity in post-emergence
Description: as §10, §2, §3, §7, §8, §9

[14] = system: Lolium rigidum; experiment: Herbicidal activity in post-emergence
Description: as §10, §2, §3, §7, §8, §9

[15] = system: Poa Annua; experiment: Herbicidal activity in post-emergence
Description: as §10, §2, §3, §7, §8, §9

[16] = system: Setaria viridis; experiment: Herbicidal activity in post-emergence
Description: as §10, §2, §3, §7, §8, §9

SMILES	Herbicidal activity in pre-emergence [1]	Herbicidal activity in pre-emergence [2]	Herbicidal activity in pre-emergence [3]	Herbicidal activity in pre-emergence [4]	Herbicidal activity in pre-emergence [5]	Herbicidal activity in pre-emergence [6]	Herbicidal activity in pre-emergence [7]	Herbicidal activity in pre-emergence [8]	Herbicidal activity in post-emergence [9]	Herbicidal activity in post-emergence [10]	Herbicidal activity in post-emergence [11]	Herbicidal activity in post-emergence [12]	Herbicidal activity in post-emergence [13]	Herbicidal activity in post-emergence [14]	Herbicidal activity in post-emergence [15]	Herbicidal activity in post-emergence [16]
CCc1nnc([S+]([O-])Cc2c(C(F)(F)F)nn(C)c2OCC(F)(F)F)s1 (stereo not shown) [Nr. 121]	5 (91% of damage-death of the plant)	5 (91% of damage-death of the plant)	5 (91% of damage-death of the plant)	5 (91% of damage-death of the plant)	5 (91% of damage-death of the plant)	5 (91% of damage-death of the plant)	5 (91% of damage-death of the plant)	5 (91% of damage-death of the plant)	4 (71-90% of damage)	5 (91% of damage-death of the plant)	5 (91% of damage-death of the plant)	5 (91% of damage-death of the plant)	5 (91% of damage-death of the plant)	4 (71-90% of damage)	5 (91% of damage-death of the plant)	4 (71-90% of damage)
O=S(=O)(c1nnc(C(F)(F)F)s1)c1c(Cl)cccc1Cl [CR1, 2-(2,6-dichlorophenylsulfonyl)-5-(trifluoromethyl)-1,3,4-thiadiazole, reference compound]	0 (0-10% of damage)	0 (0-10% of damage)	0 (0-10% of damage)	0 (0-10% of damage)	0 (0-10% of damage)	0 (0-10% of damage)	0 (0-10% of damage)	0 (0-10% of damage)	0 (0-10% of damage)	0 (0-10% of damage)	0 (0-10% of damage)	0 (0-10% of damage)	0 (0-10% of damage)	0 (0-10% of damage)	0 (0-10% of damage)	0 (0-10% of damage)
Cc1nnc([S+]([O-])Cc2c(C(F)(F)F)nn(C)c2OCC(F)(F)F)s1 (stereo not shown) [Nr. 9]	5 (91% of damage-death of the plant)	5 (91% of damage-death of the plant)	5 (91% of damage-death of the plant)	5 (91% of damage-death of the plant)	5 (91% of damage-death of the plant)	5 (91% of damage-death of the plant)	5 (91% of damage-death of the plant)	5 (91% of damage-death of the plant)	5 (91% of damage-death of the plant)	5 (91% of damage-death of the plant)	5 (91% of damage-death of the plant)	5 (91% of damage-death of the plant)	5 (91% of damage-death of the plant)	4 (71-90% of damage)	5 (91% of damage-death of the plant)	4 (71-90% of damage)
Cc1nnc([S+]([O-])Cc2c(Cl)cccc2Cl)s1 (stereo not shown) [Nr. 1, 2-[(2,6-dichlorobenzyl)-sulfinyl]-5-methyl-1,3,4-thiadiazole]	4 (71-90% of damage)	5 (91% of damage-death of the plant)	5 (91% of damage-death of the plant)	4 (71-90% of damage)	5 (91% of damage-death of the plant)	4 (71-90% of damage)	5 (91% of damage-death of the plant)	4 (71-90% of damage)	4 (71-90% of damage)	5 (91% of damage-death of the plant)	5 (91% of damage-death of the plant)	4 (71-90% of damage)	5 (91% of damage-death of the plant)	4 (71-90% of damage)	5 (91% of damage-death of the plant)	4 (71-90% of damage)
